From patent US20260209288A1, “PEPTIDES FOR REGULATING GLUCOSE” (Cooke Aquaculture Inc., priority 2019, published 2026)

Legend:
L6 skeletal muscle cells = test: Glucose uptake experiments in L6 skeletal muscle cells (2-deoxy-[3H]glucose); type: cell-based
Protocol: Glucose uptake experiments were conducted as described by Roblet 2013. L6 skeletal muscle cells were grown in an a-minimum essential medium (a-MEM) containing 2% (v/v) fetal bovine serum (GBS) in an atmosphere of 5% CO2 at 37° C. [Tremblay 2001]. Cells were plated at 600,000 cells/plate in 24-well plates to obtain about 25,000 cells/mL. The cells were incubated 7 days, to reach their complete differentiation to myotubes (7 days post-plating). L6 myotubes were deprived of GBS for 3 h, with a a-MEM containing 0% of GBS. Then, the cells were incubated for 75 minutes, with 10 μl of EDUF fractions at a concentration of 1 μg/mL and 1 ng/ml. Finally, insulin was added (10 μl at 1.10-5M) for 45 min. Experiments were repeated 9 times, and each repetition was run in triplicate. After experimental treatments, cells were rinsed once with 37° C. HEPES-buffered solution (20 mM HEPES, pH 7.4, 140 mM NaCl, 5 mM KCl, 2.5 mM MgSO4, and 1 mM CaCl2)) and were subsequently incubated in HEPES-buffered solution containing 10 µM 2-deoxyglucose and 0.3 μCi/mL 2-deoxy-[3H] glucose for 8 minutes. Then, the cells were rinsed three times with 0.9% NaCl solution at 4° C. and then frozen. The next day, the cells were disrupted by adding 500 μl of a 50 mM NaOH solution. The radioactivity was determined by scintillation.

FAO rat hepatocytes = test: Hepatic glucose production experiments in FAO cells; type: cell-based
Protocol: Hepatic glucose production experiments were conducted as described by Chevrier et al, (2015). Briefly, FAO rat hepatocytes were grown and maintained in monolayer culture in Roswell Park Memorial Institute medium (RPMI) containing 10% FBS in an atmosphere of 5% CO2 at 37° C. Cells were plated at 4.10^6 cells/plate. […] […] Glucose production was measured in the medium by using the Amplex Red Glucose/Glucose Oxidase Assay kit (Invitrogen). Results shown are the mean response of at least 6 independent experiments realized in triplicate.

Substance	glucose uptake, dose-response effect (L6 skeletal muscle cells; IPVE at 1 ng/ml)	glucose uptake, dose-response effect (L6 skeletal muscle cells; IPVE at 10 ng/ml)	Bioactivity (L6 skeletal muscle cells; Table 1, identified peptides, glucose uptake)	nature of the glucose uptake response (L6 skeletal muscle cells; concentrations from 1 μg/mL to 10 μg/mL as printed)	glucose uptake, dose-response effect (L6 skeletal muscle cells; highest concentrations tested (>10 ng/ml))	enhancement of the glucose uptake (L6 skeletal muscle cells; in the presence of insulin, compared to the insulin control (P=0.016)) [%]	glucose uptake, dose-response effect (L6 skeletal muscle cells; lowest concentrations tested (<100 μg/mL))	Bioactivity (FAO rat hepatocytes; Table 1, identified peptides, hepatic glucose production)	decrease in HGP (hepatic glucose production) (FAO rat hepatocytes; basal condition) [%]	decrease of the HGP (hepatic glucose production) (FAO rat hepatocytes; insulin condition: peptide incubated with insulin at 0.1 nm, compared to insulin at 0.1 nm) [%]
IPVE: synthetic peptide of amino acid sequence IPVE, identified from salmon protein hydrolysate; increases glucose uptake	increase the bioactivity	increase the bioactivity	Increases glucose uptake	dose-dependent	no effect on the glucose uptake	17	no effect on the glucose uptake			
VAPEEHPTL								Decreases hepatic glucose production	20	18
